# From patent publication US20120238449A1, “SYNERGISTIC HERBICIDAL COMPOSITION CONTAINING PENOXSULAM AND PYROXSULAM” (priority 2011, published 2012)
# What was measured:
# Assay type in all cases: in vivo
# [1] = tested on: short-spiked canarygrass (Phalaris brachystachys, PHABR); assay: Field trial, percent visual weed control of PHABR; details: 28 to 56 days after application
# Description: (§1) These trials were conducted under field conditions in France, Poland and Syria. Trial sites were located in commercially grown crops wheat, barley and corn. The crops were grown using normal cultural practices for fertilization, seeding, and maintenance to ensure good growth of the crop and the weeds. The trials were conducted using typical small plot herbicide research methodology. Trial plots were between 1 to 2.5 meters (m) wide by 6 to 42 m long. All treatments were applied using a randomized complete block trial design with 2 to 4 replications per treatment. The trial sites had naturally occurring populations of weeds. The weed spectrum included, but was not limited to, wild oat (Avena fatua, AVEFA); Shepherd's purse (Capsella bursa-pastoris, CAPBP); common lambsquarter (Chenopodium album, CHEAL); barnyardgrass (Echinochloa crus-galli, ECHCG); ryegrass (Lolium spp., LOLSS); short-spiked canarygrass (Phalaris brachystachys, PHABR); awned canarygrass (Phalaris paradoxa, PHAPA); narrow-leaved plantain (Plantago lanceolata, PLALA); annual […] (Poa annua, POAAN); and wild buckwheat (Polygonum convolvulus, POLCO).
# (§2) Treatments consisted of tank mixes of penoxsulam and pyroxsulam or pyroxsulam+cloquintocet (mexyl) applied in water. Where used, Actirob B adjuvant was applied at use rate of 0.2 to 1 liter per hectare (L/ha) with pyroxsulam containing treatments and in tankmixes. […]
# [2] = tested on: ryegrass (Lolium spp., LOLSS); assay: Field trial, percent visual weed control of LOLSS; details: 14 to 61 days after application
# Description: as §1, §2
# [3] = tested on: awned canarygrass (Phalaris paradoxa, PHAPA); assay: Field trial, percent visual weed control of PHAPA; details: 28 to 56 days after application
# Description: as §1, §2
# [4] = tested on: barnyardgrass (Echinochloa crus-galli, ECHCG); assay: Field trial, percent visual weed control of ECHCG; details: 39-51 days after application
# Description: as §1, §2
# [5] = tested on: wild buckwheat (Polygonum convolvulus, POLCO); assay: Field trial, percent visual weed control of POLCO; details: 39-51 days after application
# Description: as §1, §2
# [6] = tested on: wild oat (Avena fatua, AVEFA); assay: Field trial, percent visual weed control of AVEFA; details: 28 to 56 days after application
# Description: as §1, §2
# [7] = tested on: Shepherd's purse (Capsella bursa-pastoris, CAPBP); assay: Field trial, percent visual weed control of CAPBP; details: 39-51 days after application
# Description: as §1, §2
# [8] = tested on: narrow-leaved plantain (Plantago lanceolata, PLALA); assay: Field trial, percent visual weed control of PLALA; details: 14 to 61 days after application
# Description: as §1, §2
# [9] = tested on: annual blackgrass (Poa annua, POANN); assay: Field trial, percent visual weed control of POANN; details: 14 to 61 days after application
# Description: as §1, §2
# [10] = tested on: common lambsquarter (Chenopodium album, CHEAL); assay: Field trial, percent visual weed control of CHEAL; details: 39-51 days after application
# Description: as §1, §2
SMILES,"Control of PHABR, Obs (Observed Response) ([1]; pyroxsulam 18 g ai/ha alone) [%]","Control of LOLSS, Obs (Observed Response) ([2]; pyroxsulam 20 g ai/ha alone) [%]","Control of PHAPA, Obs (Observed Response) ([3]; pyroxsulam 18 g ai/ha alone) [%]","Control of ECHCG, Obs (Observed Response) ([4]; pyroxsulam 4 g ai/ha alone) [%]","Control of POLCO, Obs (Observed Response) ([5]; pyroxsulam 4 g ai/ha alone) [%]","Control of AVEFA, Obs (Observed Response) ([6]; pyroxsulam 18 g ai/ha alone) [%]","Control of CAPBP, Obs (Observed Response) ([7]; pyroxsulam 4 g ai/ha alone) [%]","Control of PLALA, Obs (Observed Response) ([8]; pyroxsulam 20 g ai/ha alone) [%]","Control of POANN, Obs (Observed Response) ([9]; pyroxsulam 20 g ai/ha alone) [%]","Control of CHEAL, Obs (Observed Response) ([10]; pyroxsulam 4 g ai/ha alone) [%]","Control of PHABR, Obs (Observed Response) ([1]; penoxsulam 20 g ai/ha alone) [%]","Control of LOLSS, Obs (Observed Response) ([2]; penoxsulam 20 g ai/ha alone) [%]","Control of PHAPA, Obs (Observed Response) ([3]; penoxsulam 20 g ai/ha alone) [%]","Control of ECHCG, Obs (Observed Response) ([4]; penoxsulam 5 g ai/ha alone) [%]","Control of POLCO, Obs (Observed Response) ([5]; penoxsulam 5 g ai/ha alone) [%]","Control of AVEFA, Obs (Observed Response) ([6]; penoxsulam 20 g ai/ha alone) [%]","Control of CAPBP, Obs (Observed Response) ([7]; penoxsulam 5 g ai/ha alone) [%]","Control of PLALA, Obs (Observed Response) ([8]; penoxsulam 20 g ai/ha alone) [%]","Control of POANN, Obs (Observed Response) ([9]; penoxsulam 20 g ai/ha alone) [%]","Control of CHEAL, Obs (Observed Response) ([10]; penoxsulam 5 g ai/ha alone) [%]"
"COc1cc(OC)n2nc(NS(=O)(=O)c3c(C(F)(F)F)ccnc3OC)nc2n1 [Pyroxsulam, N-(5,7-dimethoxy[1,2,4]triazolol1,5-alpyrimidin-2-yl)-2-methoxy-4-(trifluoromethyl)-3-pyridinesulfonamide]",38,0,80,65,35,65,70,7,0,65,–,–,–,–,–,–,–,–,–,–
"COc1cnc(OC)n2nc(NS(=O)(=O)c3c(OCC(F)F)cccc3C(F)(F)F)nc12 [Penoxsulam, 2-(2,2-difluoroethoxy)-N-(5,8-dimethoxy-[1,2,4]triazolol1,5-clpyrimidin-2-yl)-6-(trifluoromethyl)benzenesulfonamide]",–,–,–,–,–,–,–,–,–,–,0,20,0,0,50,0,20,13,17,10
